Source: ChEMBL document CHEMBL1147189, “QSAR analysis for heterocyclic antifungals” (2007)
Converted amounts (≈) assume the structure as drawn.

System: Candida albicans
Assay: Antifungal activity against Candida albicans by serial dilution method
Assay type: functional
Details: read-out: -Log MIC (converted)

MIC	Compound
59.3 µM (≈ 12.5 µg/mL)	Nc1ccc(-c2nc3ncccc3o2)cc1
77.6 µM (≈ 22.4 µg/mL)	Nc1ccc2oc(-c3ccc(Br)cc3)nc2c1
24.6 µM (≈ 6.26 µg/mL)	O=[N+]([O-])c1ccc2oc(Cc3ccccc3)nc2c1
105 µM (≈ 25.1 µg/mL)	COc1ccc(-c2nc3cc(C)ccc3o2)cc1
45.5 µM (≈ 12.5 µg/mL)	O=[N+]([O-])c1ccc2oc(-c3ccc(Cl)cc3)nc2c1
112 µM (≈ 25 µg/mL)	c1ccc(NCc2nc3ccccc3[nH]2)cc1
52.8 µM (≈ 12.5 µg/mL)	Cc1ccc2[nH]c(CCc3ccccc3)nc2c1
104 µM (≈ 25 µg/mL)	Cc1ccc2nc(COc3ccccc3)oc2c1
51.3 µM (≈ 12.5 µg/mL)	Clc1ccc2oc(Cc3ccccc3)nc2c1
45.3 µM (≈ 11.8 µg/mL)	Clc1ccc2oc(COc3ccccc3)nc2c1
96.6 µM (≈ 25 µg/mL)	Clc1ccc(OCc2nc3ccccc3[nH]2)cc1
98.9 µM (≈ 25 µg/mL)	CN(C)c1ccc(-c2nc3cc(N)ccc3o2)cc1
84.9 µM (≈ 25 µg/mL)	Clc1ccc(OCc2nc3cc(Cl)ccc3o2)cc1
55.8 µM (≈ 12.5 µg/mL)	CCc1ccc(-c2nc3ncccc3o2)cc1
94.6 µM (≈ 25 µg/mL)	Clc1ccc(-c2nc3cc(Cl)ccc3o2)cc1
59.6 µM (≈ 12.5 µg/mL)	Cc1ccc(-c2nc3ncccc3o2)cc1
91.2 µM (≈ 25 µg/mL)	O=[N+]([O-])c1ccc(-c2nc3cc(Cl)ccc3o2)cc1
39 µM (≈ 12.5 µg/mL)	O=[N+]([O-])c1cc2oc(CSc3ccccc3)nc2cc1Cl
105 µM (≈ 25 µg/mL)	CCc1ccc(-c2nc3cc(N)ccc3o2)cc1
91.8 µM (≈ 25 µg/mL)	Cc1ccc2[nH]c(COc3ccc(Cl)cc3)nc2c1
48.3 µM (≈ 12.5 µg/mL)	Clc1ccc2[nH]c(COc3ccccc3)nc2c1
97.9 µM (≈ 25 µg/mL)	Cc1ccc2oc(CSc3ccccc3)nc2c1
41.8 µM (≈ 12.5 µg/mL)	COC(=O)c1ccc2oc(CSc3ccccc3)nc2c1
52.2 µM (≈ 12.5 µg/mL)	COc1ccc(Cc2nc3ccccc3o2)cc1

MIC	Compound
97.3 µM (≈ 25 µg/mL)	Clc1ccc2[nH]c(CCc3ccccc3)nc2c1
45.7 µM (≈ 12.5 µg/mL)	COc1ccc(Cc2nc3cc(Cl)ccc3o2)cc1
43.7 µM (≈ 12.6 µg/mL)	Brc1ccc(Cc2nc3ccccc3o2)cc1
83.6 µM (≈ 18.6 µg/mL)	c1ccc(CCc2nc3ccccc3[nH]2)cc1
79.1 µM (≈ 25 µg/mL)	COC(=O)c1ccc2[nH]c(COc3ccc(Cl)cc3)nc2c1
207 µM (≈ 50 µg/mL)	c1ccc(OCc2nc3ccccc3s2)cc1 [2-(PHENOXYMETHYL)BENZOTHIAZOLE]
111 µM (≈ 25 µg/mL)	c1ccc(OCc2nc3ccccc3o2)cc1
55.8 µM (≈ 12.5 µg/mL)	c1ccc(CCc2nc3ncccc3o2)cc1
51.3 µM (≈ 12.5 µg/mL)	Clc1ccc(Cc2nc3ccccc3o2)cc1
88.5 µM (≈ 25 µg/mL)	COC(=O)c1ccc2[nH]c(COc3ccccc3)nc2c1
97.9 µM (≈ 25 µg/mL)	Cc1ccc2nc(CSc3ccccc3)oc2c1
112 µM (≈ 25.1 µg/mL)	Cc1ccc(-c2nc3cc(C)ccc3o2)cc1
94.4 µM (≈ 24.4 µg/mL)	CNc1ccc(-c2nc3cc(Cl)ccc3o2)cc1
97.9 µM (≈ 24.9 µg/mL)	Cc1ccc2[nH]c(CSc3ccccc3)nc2c1
38.9 µM (≈ 12.6 µg/mL)	Clc1ccc2oc(Cc3ccc(Br)cc3)nc2c1
52.1 µM (≈ 12.5 µg/mL)	CCOc1ccc(-c2nc3ncccc3o2)cc1
148 µM (≈ 50 µg/mL)	O=[N+]([O-])c1cc2oc(COc3ccc(Cl)cc3)nc2cc1Cl
51.8 µM (≈ 12.5 µg/mL)	c1ccc(SCc2nc3ccccc3o2)cc1
105 µM (≈ 25 µg/mL)	Cc1ccc2[nH]c(COc3ccccc3)nc2c1
21.7 µM (≈ 6.26 µg/mL)	O=[N+]([O-])c1ccc2oc(Cc3ccc(Cl)cc3)nc2c1
164 µM (≈ 50 µg/mL)	O=[N+]([O-])c1cc2oc(COc3ccccc3)nc2cc1Cl
92.5 µM (≈ 25 µg/mL)	O=[N+]([O-])c1ccc2oc(COc3ccccc3)nc2c1
105 µM (≈ 25 µg/mL)	CCc1ccc(-c2nc3cc(C)ccc3o2)cc1
105 µM (≈ 25.1 µg/mL)	Cc1ccc2oc(COc3ccccc3)nc2c1

MIC	Compound
20.9 µM (≈ 6.25 µg/mL)	O=[N+]([O-])c1ccc(Cc2nc3cc([N+](=O)[O-])ccc3o2)cc1
59.8 µM (≈ 12.5 µg/mL)	c1ccc(Cc2nc3ccccc3o2)cc1
105 µM (≈ 25 µg/mL)	Cc1ccc2[nH]c(CNc3ccccc3)nc2c1
43.8 µM (≈ 12.5 µg/mL)	O=[N+]([O-])c1ccc2oc(CSc3ccccc3)nc2c1
52.1 µM (≈ 14 µg/mL)	O=[N+]([O-])c1ccc2[nH]c(COc3ccccc3)nc2c1
49.2 µM (≈ 12.5 µg/mL)	O=[N+]([O-])c1ccc(Cc2nc3ccccc3o2)cc1
88.3 µM (≈ 25 µg/mL)	COC(=O)c1ccc2oc(COc3ccccc3)nc2c1
119 µM (≈ 25 µg/mL)	Nc1ccc(-c2nc3ccccc3o2)cc1
51.9 µM (≈ 12.5 µg/mL)	O=[N+]([O-])c1ccc(-c2nc3ncccc3o2)cc1
46.7 µM (≈ 12.5 µg/mL)	O=[N+]([O-])c1ccc2oc(CCc3ccccc3)nc2c1
105 µM (≈ 25 µg/mL)	CNc1ccc(-c2nc3cc(C)ccc3o2)cc1
128 µM (≈ 25 µg/mL)	c1ccc(-c2nc3ccccc3o2)cc1 [2-PHENYLBENZO[D]OXAZOLE]
99.1 µM (≈ 25 µg/mL)	Cc1ccc2oc(-c3ccc(N(C)C)cc3)nc2c1
99.8 µM (≈ 25.1 µg/mL)	CC(C)(C)c1ccc(-c2nc3ccccc3o2)cc1
78.7 µM (≈ 25 µg/mL)	COC(=O)c1ccc2oc(COc3ccc(Cl)cc3)nc2c1
97.1 µM (≈ 25 µg/mL)	CCc1ccc(-c2nc3cc(Cl)ccc3o2)cc1
55 µM (≈ 12.4 µg/mL)	c1ccc(OCc2nc3ncccc3o2)cc1
87.3 µM (≈ 25 µg/mL)	CC(=O)Nc1ccc(-c2nc3cc(Cl)ccc3o2)cc1
164 µM (≈ 50 µg/mL)	O=[N+]([O-])c1ccc2nc(COc3ccc(Cl)cc3)oc2c1
91 µM (≈ 25 µg/mL)	Clc1ccc2[nH]c(CSc3ccccc3)nc2c1
49 µM (≈ 12.5 µg/mL)	Nc1ccc(-c2nc3cc([N+](=O)[O-])ccc3o2)cc1
112 µM (≈ 25 µg/mL)	CNc1ccc(-c2nc3ccccc3o2)cc1
52.2 µM (≈ 12.5 µg/mL)	O=[N+]([O-])c1ccc2oc(-c3ccccc3)nc2c1
96.4 µM (≈ 25 µg/mL)	Clc1ccc(OCc2nc3ccccc3o2)cc1

MIC	Compound
48 µM (≈ 12.5 µg/mL)	Clc1ccc(OCc2nc3ncccc3o2)cc1
111 µM (≈ 25 µg/mL)	c1ccc(OCc2nc3ccccc3[nH]2)cc1
22 µM (≈ 6.26 µg/mL)	COc1ccc(Cc2nc3cc([N+](=O)[O-])ccc3o2)cc1
43.4 µM (≈ 12.5 µg/mL)	O=[N+]([O-])c1ccc(Cc2nc3cc(Cl)ccc3o2)cc1
42.7 µM (≈ 12.5 µg/mL)	Clc1ccc(OCc2nc3cc(Cl)ccc3[nH]2)cc1
52 µM (≈ 12.5 µg/mL)	c1ccc(SCc2nc3ccccc3[nH]2)cc1
110 µM (≈ 25 µg/mL)	Cc1ccc2oc(-c3ccc(F)cc3)nc2c1
183 µM (≈ 50 µg/mL)	Cc1ccc2nc(COc3ccc(Cl)cc3)oc2c1
83.9 µM (≈ 25 µg/mL)	COC(=O)c1ccc2[nH]c(CSc3ccccc3)nc2c1
97.1 µM (≈ 25 µg/mL)	c1ccc(SCc2nc3ccccc3s2)cc1 [2-(PHENYLTHIOMETHYL)BENZO[D]THIAZOLE]
43.9 µM (≈ 12.5 µg/mL)	O=[N+]([O-])c1ccc2[nH]c(CSc3ccccc3)nc2c1
110 µM (≈ 25 µg/mL)	Nc1ccc2oc(-c3ccc(F)cc3)nc2c1
43.7 µM (≈ 12.5 µg/mL)	O=[N+]([O-])c1ccc2nc(CSc3ccccc3)oc2c1
82 µM (≈ 25 µg/mL)	O=[N+]([O-])c1ccc2oc(COc3ccc(Cl)cc3)nc2c1
183 µM (≈ 50 µg/mL)	Cc1ccc2oc(COc3ccc(Cl)cc3)nc2c1
39.3 µM (≈ 12.5 µg/mL)	O=[N+]([O-])c1ccc2oc(-c3ccc(Br)cc3)nc2c1
18.8 µM (≈ 6.28 µg/mL)	O=[N+]([O-])c1ccc2oc(Cc3ccc(Br)cc3)nc2c1
185 µM (≈ 50.1 µg/mL)	O=[N+]([O-])c1ccc2nc(COc3ccccc3)oc2c1
49.2 µM (≈ 12.5 µg/mL)	Cc1ccc(-c2nc3cc([N+](=O)[O-])ccc3o2)cc1
94 µM (≈ 25 µg/mL)	CC(=O)Nc1ccc(-c2nc3cc(C)ccc3o2)cc1
42.2 µM (≈ 12.5 µg/mL)	CC(C)(C)c1ccc(-c2nc3cc([N+](=O)[O-])ccc3o2)cc1
55.3 µM (≈ 12.5 µg/mL)	COc1ccc(-c2nc3ncccc3o2)cc1
181 µM (≈ 49.9 µg/mL)	Clc1ccc(OCc2nc3ccccc3s2)cc1
